The values below are quoted from earlier work in PMC3545186 (Biochemical Pharmacology, 2013).

For data set [1] the following is noted: Asian breast cancer patient population; cited from earlier work.
The conditions of data set [2]: cited from earlier work.

Consider `COc1cccc2c1C(=O)c1c(O)c3c(c(O)c1C2=O)C[C@@](O)(C(=O)CO)C[C@@H]3O[C@H]1C[C@H](N)[C@H](O)[C@H](C)O1` [doxorubicin], for which the “exposure in individuals homozygous mutant for ABCB1 C1236T, G2677T/A and C3435T” value in data set [1] is “significantly higher exposure”.

Turning to `COc1cc([C@@H]2c3cc4c(cc3[C@@H](O[C@@H]3O[C@@H]5CO[C@@H](C)O[C@H]5[C@H](O)[C@H]3O)[C@H]3COC(=O)[C@H]23)OCO4)cc(OC)c1O` [etoposide], the “higher plasma concentrations in Abcb1a/1b knockout mice compared to wild type (WT) mice” value in data set [2] is 1.4 fold.
